For one test, the target named is T1, hTMEM16A (abc) (Homo sapiens, UniProt Q5XXA6, DEL476-501).
T1 sequence (Q5XXA6 with tags, fused parts or gaps isoform Q5XXA6-5 DEL539-564): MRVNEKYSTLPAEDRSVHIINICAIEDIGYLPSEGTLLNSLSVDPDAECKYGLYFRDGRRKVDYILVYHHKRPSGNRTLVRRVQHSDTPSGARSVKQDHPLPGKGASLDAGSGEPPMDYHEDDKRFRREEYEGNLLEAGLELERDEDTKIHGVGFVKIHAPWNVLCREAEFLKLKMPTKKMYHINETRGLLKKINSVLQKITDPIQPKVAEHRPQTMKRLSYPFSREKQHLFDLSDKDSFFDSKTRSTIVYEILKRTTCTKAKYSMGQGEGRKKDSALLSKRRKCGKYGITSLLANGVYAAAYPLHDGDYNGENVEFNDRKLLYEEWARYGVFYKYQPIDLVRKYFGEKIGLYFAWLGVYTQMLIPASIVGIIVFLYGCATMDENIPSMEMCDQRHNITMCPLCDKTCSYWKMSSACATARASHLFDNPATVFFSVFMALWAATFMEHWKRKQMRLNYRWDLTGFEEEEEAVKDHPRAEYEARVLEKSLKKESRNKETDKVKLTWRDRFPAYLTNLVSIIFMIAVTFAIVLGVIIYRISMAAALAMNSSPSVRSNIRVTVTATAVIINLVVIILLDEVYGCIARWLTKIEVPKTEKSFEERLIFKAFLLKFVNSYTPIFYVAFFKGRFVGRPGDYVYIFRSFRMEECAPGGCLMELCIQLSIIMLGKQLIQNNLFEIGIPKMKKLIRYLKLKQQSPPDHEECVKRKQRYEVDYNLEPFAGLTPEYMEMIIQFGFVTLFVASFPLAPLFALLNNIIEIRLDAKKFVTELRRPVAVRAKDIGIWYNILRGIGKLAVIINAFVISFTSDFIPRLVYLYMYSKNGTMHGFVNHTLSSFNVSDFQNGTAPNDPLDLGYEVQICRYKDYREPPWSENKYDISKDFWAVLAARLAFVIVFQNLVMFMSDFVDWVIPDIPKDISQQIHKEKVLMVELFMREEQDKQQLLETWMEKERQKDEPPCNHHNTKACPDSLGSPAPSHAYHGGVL
Briefly: TMEM16A halide-sensitive YFP (eYFP) high-throughput screening assay. Format: cell-based. Set-up: expressed in transfected cells. As to conditions: for remaining activity at 5 µM / inhibition at 5 µM: 5 μM compound; for remaining activity at 5 µM: POC 0 = full block by benzbromarone, read-out: POC (percent of control) halide-sensitive YFP response in HTS; for inhibition at 5 µM: read-out: % inhibition of halide-sensitive YFP response during HTS. As for the experimental part: The High-Throughput-Screening clone HEK293T:eYFP: TMEM16A(abc) stably expressing eYFP (H149Q,I153L) and human TMEM16A(abc) was generated by stable transfection followed by functional clone selection. HEK293T:eYFP (H149Q,I153L) was cultivated in propagation medium DMEM (PAN #P04-03550) containing 10% FBS (PAN #3302-P281402), 1x Pen/Strep (PAN #P06-07100), 1x L-glutamine (PAN #P04-80100), 10 mM HEPES (PAN #P05-01100) and 0.5 μg/ml puromycin (Sigma #P7255) and transfected with pIREShyg3:huTMEM16A(abc). Stable cell pool was generated by cultivation in propagation medium containing 0.5 μg/ml puromycin and 200 μg/ml hygromycin B for 20 days. Cell pool was then diluted in the same medium and seeded in 384-well microtiter plates. Grown clones were replicated into daughter plates using a CyBio Felix pipetting platform (Analytik Jena AG). Daughter plates were analyzed using the eYFP assay essentially as described in the HTS protocol below using a FLIPR-Tetra. Clones showing maximal quenching of eYFP fluorescence intensity after addition of trigger solution (assay buffer containing NaI and ionomycin) were selected for propagation from the mother plate and further characterized with regard to HTS assay development performance parameters including inhibition by the benchmark compound benzbromarone, S/B and relevant HTS quality control statistics (Z-factor, Z′-factor, RZ-factor, RZ′-factor). One clone was finally selected as HTS clone and used throughout the entire HTS campaign to identify TMEM16A antagonists.
For the HTS screen, the screening cell line HEK293T:eYFP(H149Q,I153L):TMEM16A(abc) stably expressing halide sensitive YFP (eYFP (H149Q,I153L)) and human TMEM16A(abc) were propagated in DMEM (PAN #P04-03550) containing 10% FBS (PAN #3302-P281402), 1x Pen/Strep (PAN #P06-07100), 1x L-glutamine (PAN #P04-80100), 10 mM HEPES (PAN #P05-01100), 0.5 μg/ml puromycin (Sigma #P7255), and 150 μg/ml hygromycin B (Life Technologies #10687-010) in Corning TC-treated flasks. Twenty four hours prior to the assay 11,000 cells were seeded per well in 30 μl assay plating medium [propagation medium containing 0.01% Pluronic F-68 (PAN #P08-2100)] in Corning CellBIND 384-Well Flat Clear Bottom Black Polystyrene Microplates (Corning #3683) and cultivated for 24 h at 37°C. Before initiating the fully automated and scheduled HTS sequence, cell plates were transferred to an incubator and stored at RT and 0% CO2. Library compounds were delivered in Greiner 384 PP plates (Greiner #784201) containing 1mM compound dissolved in DMSO in columns 1–22 and DMSO in columns 23 and 24 and were stored in a stacker at RT. Further dilutions of compounds were generated by fully automated liquid handling using a CyBio 384-well/25 μl pipetting head (Analytik Jena AG) by diluting 0.5 μl compound (1 mM in DMSO) in 20 μl assay buffer [1xHBSS (Life Technologies #14025050) containing 10 mM HEPES (PAN #P05-01100) and 0.01% Pluronic F-68 (PAN #P08-2100), adjusted to pH 7.4] in Greiner 384 PP plates (Greiner #784201). Intermediate compound plates contained 25 μM library compounds in assay buffer containing 2.5% DMSO in columns 1–22, assay buffer containing 2.5% DMSO as neutral control in column 23 and 100 μM Benzbromarone (Sigma #B5774) in assay buffer containing 2.5% DMSO in column 24 as ligand control (benchmark antagonist) and were stored in a stacker at RT. Simultaneous to compound dilution medium was aspirated from cell plates using a Biotek 405 microplate washer followed by washing the cells twice with 65 μl/well assay buffer. With the final aspiration of assay buffer, the residual volume was adjusted to 15 μl. […] Cell plates were incubated for 30 min at RT and 0% CO2. After incubation cell plates were transferred to a FLIPR-Tetra and 25 μl trigger solution [assay buffer containing 20 mM sodium iodide (Sigma #383112) and 4 μM ionomycin (Sigma #I0634; stock solution 10 mM in DMSO)] was added before reading iodide-quenching of eYFP fluorescence intensity. […]

The test system of test [1] is human bronchial smooth muscle cells. Put plainly: Histamine-induced depolarization of human bronchial smooth muscle cells (FLIPR membrane potential). The format is cell-based. As to conditions: donor 199524, 1 M histamine (so in the source), read-out: EC50 inhibition of histamine-induced depolarization (converted).
Where [2] appears, read: HEK293T:eYFP:TMEM16A(abc), 30 min preincubation, 10 mM iodide, 2 μM ionomycin, read-out: IC50 in the eYFP HTS assay.

Like-named read-outs stand apart in the source and are kept apart here.

In general, inhibition refers to the drop in the measured response relative to a control, in per cent. One may read the IC50 as the midpoint of a concentration-inhibition curve. Regarding `N#Cc1c(C(F)(F)F)cc(O)n2c1nc1ccccc12` [1PBC], at hTMEM16A (abc), the remaining activity at 5 µM turned out to be 74.8% and the inhibition at 5 µM was 25.2%. Moreover, the IC50 on hTMEM16A (abc) (22-point dose-response, read-out: IC50, TMEM16A eYFP assay dose response of the HTS campaign) turned out to be 1.05 µM. As a reminder, the EC50 is the concentration giving half of the maximal effect. Turning to `CCc1oc2ccccc2c1C(=O)c1cc(Br)c(O)c(Br)c1` [Benzbromarone], the EC50 in test [1] was 9.9 µM.

For `COc1cc([N+](=O)[O-])ccc1NC(=O)c1cc(Cl)c2ccccc2c1O` [Cpd 4], on hTMEM16A (abc), the remaining activity at 5 µM was 61.1 ± 7.8% and the inhibition at 5 µM stood at 38.9%. The IC50 at hTMEM16A (abc) (setting [2]) stood at 0.97 µM. In the case of `Oc1ccc(Cl)cc1Cc1cc(Cl)ccc1O` [Dichlorophen], the EC50 in test [1] was 4.1 µM. With `O=C(Nc1ncc([N+](=O)[O-])s1)c1cccs1` [NTTP], the IC50 at hTMEM16A (abc) (supplement, read-out: IC50, TMEM16A (abc) eYFP HTS assay) came to 2.84 µM. With `O=C(Nc1ccc([N+](=O)[O-])cc1Cl)c1cc(Cl)ccc1O` [Niclosamide], on hTMEM16A (abc), the remaining activity at 5 µM turned out to be 69 ± 3.3% and the inhibition at 5 µM is 31%. Besides, at hTMEM16A (abc) (setting [2]), the IC50 is 0.14 µM. Consider `CCc1c(C)nc(SCC(=O)Nc2nc(-c3ccc(OC)cc3)cs2)[nH]c1=O` [T16Ainh-A01], for which the EC50 in test [1] was 3.9 µM.

(Values after PMC6382696, “Drug Repurposing: The Anthelmintics Niclosamide and Nitazoxanide Are Potent TMEM16A Antagonists That Fully Bronchodilate Airways” (Frontiers in Pharmacology, 2019).)
